Like-named read-outs stand apart in the source and are kept apart here.
Tests used:
[1] = Experimental: Shed snakeskin, which is a model membrane to human skin used for preliminary permeability studies due to its similarity in composition to the human stratum corneum, was used as a skin model. The solution in the receiver compartment was maintained at 37° C. and stirred at 500 rpm with a magnetic stirrer. Before each experiment, the shed snakeskin was hydrated in 7.4 pH Dulbecco's Phosphate Buffered Saline (DPBS) containing 0.1% sodium azide solution for 24 hours at room temperature.
To emulate the esterase activity of human skin, a “sandwich” of shed snakeskin from a black rat snake (Pantherophis obsoletus) and a dialysis membrane with a molecular weight cut-off of 3.5 kDa (Cole-Palmer, Spectra Por S/P 3 EW-02900-04) was designed. Recombinant Human Carboxylesterase 2/CES2 (R&D Systems, #5657-CE) at a concentration 50 μg/mL was added between the snakeskin and the dialysis membrane (FIG. 1). A diffusion area of 0.64 cm^2 and a volume of 2 mL in the donor and receiver compartments were used. The temperature in Franz cell was controlled via thermocouple probe IT-23 (World Precision Instruments, Sarasota, FL, USA) placed in receiver compartment below the membrane “sandwich” through the sampling arm. All tested compounds were solubilized in 50% polyethylene glycol 400 (PEG 400)/DPBS at 25 mg/mL. PEG 400 was used to increase the water solubility of diethyl cromoglycate, cetirizine ethyl ester and cetirizine cromoglycate.
The system was allowed to equilibrate for one hour before each experiment. […] The receiver compartment was filled with 2 mL of 50% w/w polyethylene glycol 400 in DPBS to maintain a sink condition in the receiver solution. A sample was manually taken at 1-hour intervals from the receptor compartment and replaced with fresh DPBS at each time point. The concentration of drugs and their cumulative amount was plotted against time. Each experiment with each compound was performed in triplicate. The amount of the drug in the sample was estimated spectrophotometrically (NanoDrop™ UV-Visible spectrophotometer, Thermo Fisher Scientific Inc.). Light absorption was plotted as a function of concentration and fitted with a linear regression equation.

[2] = normal pH of 7.4; cited from earlier work
[3] = black rat snake (Pantherophis obsoletus), 0 h, 25 mg/mL
[4] = black rat snake (Pantherophis obsoletus), 25 mg/mL
[5] = black rat snake (Pantherophis obsoletus), 1 h, 25 mg/mL
[6] = black rat snake (Pantherophis obsoletus), 2 h, 25 mg/mL
[7] = black rat snake (Pantherophis obsoletus), 3 h, 25 mg/mL
[8] = black rat snake (Pantherophis obsoletus), 4 h, 25 mg/mL
[9] = black rat snake (Pantherophis obsoletus), 5 h, 25 mg/mL
[10] = black rat snake (Pantherophis obsoletus), 6 h, 25 mg/mL
[11] = black rat snake (Pantherophis obsoletus), 7 h, 25 mg/mL
[12] = black rat snake (Pantherophis obsoletus), 8 h, 25 mg/mL
[13] = black rat snake (Pantherophis obsoletus), 9 h, 25 mg/mL
[14] = black rat snake (Pantherophis obsoletus), 10 h, 25 mg/mL
[15] = black rat snake (Pantherophis obsoletus), 11 h, 25 mg/mL
[16] = black rat snake (Pantherophis obsoletus), 12 h, 25 mg/mL

SMILES	transport compared with the permeation of lipophilic prodrugs diethyl cromoglycate and cetirizine ethyl ester [1]	Cumulative concentration per unit area [1, 3] [μg/cm^2]	mean lag times across shed snakeskin [1, 4] [h]	Cumulative concentration per unit area [1, 5] [μg/cm^2]	Cumulative concentration per unit area [1, 6] [μg/cm^2]	Cumulative concentration per unit area [1, 7] [μg/cm^2]	Cumulative concentration per unit area [1, 8] [μg/cm^2]	Cumulative concentration per unit area [1, 9] [μg/cm^2]	Cumulative concentration per unit area [1, 10] [μg/cm^2]	Cumulative concentration per unit area [1, 11] [μg/cm^2]	Cumulative concentration per unit area [1, 12] [μg/cm^2]	Cumulative concentration per unit area [1, 13] [μg/cm^2]	Cumulative concentration per unit area [1, 14] [μg/cm^2]	Cumulative concentration per unit area [1, 15] [μg/cm^2]	Cumulative concentration per unit area [1, 16] [μg/cm^2]	permeation across the shed snakeskin, times lower than the permeation of the lipophilic prodrug [1, 4]	logP [2]	mean lag times across shed snakeskin [1] [h]
O=C(COCCN1CCN(C(c2ccccc2)c2ccc(Cl)cc2)CC1)OC(COc1cccc2oc(C(=O)O)cc(=O)c12)COc1cccc2oc(C(=O)O)cc(=O)c12 (stereo not drawn) [Example 3]	lower	0	0.55 to 1.15	2	12	28	53	89	112	142	176	215	256	295	350			
O=C(O)c1cc(=O)c2c(OCC(O)COc3cccc4oc(C(=O)O)cc(=O)c34)cccc2o1 [Cromoglicate Sodium, Cromoglicate sodium, reference compound]		0		5	15	25	30	45	50	73	80	93	98	112	119	3.5-5 times	−4.8	
CCOC(=O)c1cc(=O)c2c(OCC(O)COc3cccc4oc(C(=O)OCC)cc(=O)c34)cccc2o1 [Example 50, Diethyl Cromoglicate]		0	0.15 to 0.25	23	55	95	145	195	235	256	320	390	435	470	495			
CCOC(=O)COCCN1CCN(C(c2ccccc2)c2ccc(Cl)cc2)CC1 (stereo not drawn) [Cetirizine Ethyl Ester, reference compound]																		0.15 to 0.25
